Legend:
[1] = system: cholesterol metabolism; settings: cited from earlier work
[2] = biological target: DPP4; settings: read-out: dissociation constant (Kd) with DPP4; cited from earlier work
[3] = biological target: T1, human intestinal alkaline phosphatase (hIAP) (Homo sapiens, UniProt P09923); assay: SPR competition of IIAEK binding to hIAP by PLP; settings: IIAEK 297 μM, PLP 0, 1000 and 2000 μM, HBS-N pH 7.4
T1 sequence (P09923 20-503 limits assumed): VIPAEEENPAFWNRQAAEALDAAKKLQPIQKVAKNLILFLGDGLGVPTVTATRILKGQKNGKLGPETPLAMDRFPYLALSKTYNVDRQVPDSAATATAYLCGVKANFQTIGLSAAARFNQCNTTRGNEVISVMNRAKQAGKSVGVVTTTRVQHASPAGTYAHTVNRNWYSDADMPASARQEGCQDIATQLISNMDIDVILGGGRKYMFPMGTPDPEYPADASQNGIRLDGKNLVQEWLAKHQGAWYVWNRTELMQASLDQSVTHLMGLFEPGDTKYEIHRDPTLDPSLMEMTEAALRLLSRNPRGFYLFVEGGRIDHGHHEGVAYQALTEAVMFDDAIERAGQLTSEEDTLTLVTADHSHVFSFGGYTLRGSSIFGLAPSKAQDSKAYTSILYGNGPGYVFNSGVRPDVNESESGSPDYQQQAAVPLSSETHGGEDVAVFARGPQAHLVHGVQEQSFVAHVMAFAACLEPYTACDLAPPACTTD

[4] = system: mouse liver; settings: cited from earlier work
[5] = system: hepatic NPC1L1; settings: cited from earlier work

Question: Which “improvement of cholesterol metabolism in animal studies” value (“improvement of cholesterol metabolism” below) [1] does the source give for VHVV here?
Answer: effectively improve cholesterol metabolism

Question: With GLP-1: DPP4 substrate as the molecule, how does the Kd [2] read?
Answer: 153 µM

Question: For VSEE, which “improvement of cholesterol metabolism” value [1] is on record?
Answer: effectively improve cholesterol metabolism

Question: For `Cc1ncc(COP(=O)(O)O)c(C=O)c1O` [PLP, Pyridoxal 5′-phosphate], which “competition with IIAEK for hIAP” value [3] is on record?
Answer: competes for the interaction between IIAEK and hIAP in a concentration-dependent manner

Question: With `O=C1[C@H](CC[C@H](O)c2ccc(F)cc2)[C@@H](c2ccc(O)cc2)N1c1ccc(F)cc1` [ezetimibe] as the molecule, how does the “hepatic mRNA levels of Hmgcr and Srebf2” value [4] read?
Answer: increasing hepatic mRNA levels of Hmgcr and Srebf2

Question: And the liver cholesterol levels [4]?
Answer: decreases liver cholesterol levels

Question: And the “hepatic NPC1L1-induced hepatic lipids accumulation” value [5]?
Answer: eliminated

Question: With HIRL as the molecule, how does the “improvement of cholesterol metabolism” value [1] read?
Answer: effectively improve cholesterol metabolism

Question: For VFVRN, which “improvement of cholesterol metabolism” value [1] is on record?
Answer: effectively improve cholesterol metabolism

Question: With GEQQQPGM as the molecule, how does the “improvement of cholesterol metabolism” value [1] read?
Answer: effectively improve cholesterol metabolism

Question: Which “improvement of cholesterol metabolism” value [1] does the source give for VAWWMY here?
Answer: effectively improve cholesterol metabolism

From PMC12217679 (Scientific Reports, 2025)
